We go through 2 molecules from US8895753B2, “S1P receptor modulating agent” (Meiji Seika Pharma Co., Ltd., priority 2011, dated 2014).

Where “and” joins values, the source holds several entries; their conditions need not be identical. Equal entries are not always repeated.

Data set [1] concerns the target T1, Human S1P4 receptor (Homo sapiens, UniProt O95977).
T1 sequence (O95977 1-384): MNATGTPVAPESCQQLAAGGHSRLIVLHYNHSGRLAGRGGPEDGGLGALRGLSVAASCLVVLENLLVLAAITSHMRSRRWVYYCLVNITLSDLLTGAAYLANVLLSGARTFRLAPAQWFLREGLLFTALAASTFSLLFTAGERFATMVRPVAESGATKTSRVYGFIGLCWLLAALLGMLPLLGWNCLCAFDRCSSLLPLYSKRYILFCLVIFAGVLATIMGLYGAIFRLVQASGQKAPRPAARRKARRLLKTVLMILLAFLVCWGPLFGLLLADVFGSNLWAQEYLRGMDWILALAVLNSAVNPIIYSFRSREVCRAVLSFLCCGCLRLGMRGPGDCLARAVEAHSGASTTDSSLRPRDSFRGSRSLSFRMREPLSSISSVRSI
The data set is described as follows: Agonist activity at a S1P4 receptor (reporter assay, EDG6-bla/U2OS cells). The class given is cell-based. Here is the method:
Human S1P4 receptor gene recombinant EDG6-bla/U2OS cells (Life Technologies Japan Ltd.) were seeded into each well of a 384-well clear bottom black plate treated with poly-D-lysine at a density of 10000 cells/32 μL/well and cultured at 37° C. in a 5% CO2 incubator for 16 to 24 hours. A culture medium containing each test compound prepared as a 5× concentrate was added at 8 μL/well, and the plate was cultured at 37° C. in a 5% CO2 incubator for 5 hours. The substrate (LiveBLAzer™-FRET B/G substrate (CCF4-AM), Life Technologies Japan Ltd.) prepared as a 6× concentrate was added at 8 μL to each well, and the plate was incubated for 2 hours in the dark. The fluorescence intensity of the test samples was measured using bottom-reading fluorescence microplate reader at one excitation wavelength and 2 wavelengths for fluorescence emission (Ex409 nm, Em460 nm, Em530 nm). The intensity ratio of fluorescence at 460 nm/530 nm was calculated for each well. The maximum response ratio confirmed from the dose response of S1P was expressed as 100%. The concentration of the test compound required to stimulate 50% of its maximal activation was computed as EC50 (nM).

In data set [2] the target is T2, Human S1P1 receptor (Homo sapiens, UniProt P21453). Put plainly: Agonist activity at an S1P1 receptor ([35S]-GTPγS exchange reaction, membrane fractions). Format: biochemical. Conditions: read-out: EC50, agonist activity at S1P1 receptor (GTP exchange reaction). How it is done: By using membrane fractions prepared from a human S1P1 receptor expressing cells (Multispan Ltd.), the agonist activity of each test compound was measured by [^35S]-GTPγS exchange reaction in accordance with a standard procedure (Methods in Molecular Biology, Vol. 552, p 143-151 (2009)), and EC50 (nM) of each test compound was computed.
T2 sequence (P21453 whole entry): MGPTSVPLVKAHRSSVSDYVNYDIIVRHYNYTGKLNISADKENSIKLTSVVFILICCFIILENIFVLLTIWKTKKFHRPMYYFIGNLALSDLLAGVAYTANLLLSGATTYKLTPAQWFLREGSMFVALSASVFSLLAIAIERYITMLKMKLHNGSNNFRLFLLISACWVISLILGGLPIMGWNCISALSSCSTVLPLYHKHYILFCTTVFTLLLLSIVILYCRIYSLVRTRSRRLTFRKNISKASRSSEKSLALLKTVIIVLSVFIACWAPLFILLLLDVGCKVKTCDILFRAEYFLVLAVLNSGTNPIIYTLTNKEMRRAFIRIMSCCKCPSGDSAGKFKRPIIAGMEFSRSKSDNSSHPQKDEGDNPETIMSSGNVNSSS

In another data set the test system is heart rate. Put plainly: Evaluation of the heart rate in a rat (under consciousness). The class given is in vivo. Conditions: conscious rat, vascularly administered at 6 mg/kg body weight. Here is the method: Under anesthesia, femoral artery was cannulated in a 7-11-week old male SD rat (Charles River Laboratories Japan Inc.) that had been reared for more than one week. Arterial cannula was connected to a pressure transducer, and under consciousness changes in the heart rate were monitored with a polygraph (Nihon Kohden) up to 4 hours after the vascular administration of the vehicle (10% PEG300-0.01M KOH saline) or the test compounds. The dose that lowered the heart rate by 20% was computed as TD20 (mg/kg body weight).

A further data set deals with Human S1P3 receptor (Homo sapiens, UniProt Q99500). The data set is described as follows: Agonist activity at an S1P3 receptor ([35S]-GTPγS exchange reaction at 1000 nM). The class given is biochemical. Conditions: read-out: percent of the maximal agonist activity at S1P3 receptor. The procedure, abridged:
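Agonism measured by [35S]-GTPγS exchange in membranes from human S1P3-expressing cells, compound tested at 1000 nM.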
Background: GTPγS is a poorly hydrolysed GTP analogue; its binding reports G protein activation.

The target in a further data set is T3, Human S1P5 receptor (Homo sapiens, UniProt Q9H228).
T3 construct: host or cells: U2OS (EDG8-bla/U2OS)
T3 sequence (Q9H228 whole entry): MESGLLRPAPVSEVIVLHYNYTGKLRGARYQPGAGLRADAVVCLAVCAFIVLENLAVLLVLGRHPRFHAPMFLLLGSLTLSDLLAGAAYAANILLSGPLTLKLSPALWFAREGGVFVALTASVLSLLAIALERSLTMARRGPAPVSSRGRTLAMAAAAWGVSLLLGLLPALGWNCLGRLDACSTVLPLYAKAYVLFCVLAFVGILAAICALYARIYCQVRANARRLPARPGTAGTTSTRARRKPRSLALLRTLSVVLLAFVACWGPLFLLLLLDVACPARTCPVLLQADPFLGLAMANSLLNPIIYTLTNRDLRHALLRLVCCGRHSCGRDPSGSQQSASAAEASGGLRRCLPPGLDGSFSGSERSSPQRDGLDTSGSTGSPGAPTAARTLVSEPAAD
The data set is described as follows: Agonist activity at an S1P5 receptor (reporter assay, EDG8-bla/U2OS cells). Format: cell-based. How it is done:
Human S1P5 receptor gene recombinant EDG8-bla/U2OS cells (Life Technologies Japan Ltd.) were plated in a 384-well clear bottom black plate at 10000 cells/32 μL/well, and the plate was incubated at 37° C. in a 5% CO2 incubator for 48 hours. A culture containing each test compound prepared as a 5× concentrate was added at 8 μL/well, and the plate was incubated at 37° C. in a 5% CO2 incubator for 5 hours. The substrate (LiveBLAzer™-FRET B/G substrate (CCF4-AM), Life Technologies Japan Ltd.) prepared as a 6× concentrate was added at 8 μL to each well, and the plate was incubated at room temperature for 2 hours in the dark. The fluorescence intensity of each well was measured using a bottom-reading fluorescence microplate reader at one excitation wavelength and 2 wavelengths for fluorescence emission (Ex409 nm, Em460 nm, Em530 nm). The intensity ratio of fluorescence at 460 nm/530 nm was calculated for each well. The maximum response ratio confirmed from the dose response of S1P was expressed as 100%. The concentration of test compound required to stimulate 50% of its maximal activation was determined as EC50 (nM).
A general note: In a reporter assay the amount or activity of a reporter protein is the signal.

Data set [3] addresses T2, Human S1P1 receptor. The data set is described as follows: Agonist activity at an S1P1 receptor (reporter assay, EDG1-bla/U2OS cells). The class given is cell-based. The arrangement: host or cells: U2OS (EDG1-bla/U2OS). Conditions: S1P maximum response = 100%. The procedure, abridged: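 EDG1-bla/U2OS cells grown 48 h, then exposed to test compound for 5 h at 37 °C; CCF4-AM β-lactamase substrate added for 2 h at room temperature in the dark. Read-out is the 460/530 nm emission ratio (Ex409 nm), normalised to maximal S1P response as 100%; EC50 is the concentration giving 50% of maximal activation.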

In data set [4] the target is T1, Human S1P4 receptor. The data set is described as follows: Agonist activity at an S1P4 receptor (calcium influx). The following applies: at 1000 nM; read-out: activity at S1P4 receptor (elevation of intracellular calcium). The class given is cell-based. Here is the method:
By using Human S1P4 receptor expressing cells (Multispan Inc. CG1052-1), the elevation of intracellular calcium concentration via agonist activity by the addition of 1000 nM was measured by Fret method (fluorescence resonance energy transfer).
In general terms: Calcium assays in cells follow changes in intracellular calcium, usually with a dye or a luminescent sensor.

Sequence of Human S1P3 receptor (Q99500 whole entry): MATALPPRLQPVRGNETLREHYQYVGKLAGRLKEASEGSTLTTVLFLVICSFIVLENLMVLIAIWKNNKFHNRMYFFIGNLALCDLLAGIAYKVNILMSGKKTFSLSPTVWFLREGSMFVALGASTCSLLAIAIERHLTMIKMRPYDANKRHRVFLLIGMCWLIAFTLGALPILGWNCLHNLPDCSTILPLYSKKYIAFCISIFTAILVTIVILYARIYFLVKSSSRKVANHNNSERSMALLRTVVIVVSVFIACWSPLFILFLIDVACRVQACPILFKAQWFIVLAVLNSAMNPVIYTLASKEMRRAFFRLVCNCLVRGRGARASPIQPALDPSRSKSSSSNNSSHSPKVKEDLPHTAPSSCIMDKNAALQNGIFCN

Consider `CC(C)Oc1ccc(-c2cnc(-c3ccc(CN4CC(C(=O)O)C4)cc3)s2)cc1` [Example 2, 1-(4-(5-(4-isopropoxyphenyl)thiazol-2-yl)benzyl)azetidine-3-carboxylic acid], for which the EC50 (commonly the concentration that produces a half-maximal response) on Human S1P4 receptor [1] is ≥ 2000 nM; at Human S1P1 receptor [2] it was ≤ 50 nM; at Human S1P5 receptor, ≥ 2000 nM; at Human S1P1 receptor [3], ≤ 10 nM and 3.79 nM. Besides, the “suppression of the heart rate” value in the data set on heart rate is “not recognized”. The Emax at 1 µM at Human S1P3 receptor is < 20%. For the same molecule, the activation at 1 µM at Human S1P4 receptor [4] was < 20%.

Take `CC(C)Oc1ccc(-c2cnc(-c3ccc(CN4CC(C(=O)O)C4)cc3)s2)cc1Cl` [Example 3, 1-(4-(5-(3-chloro-4-isopropoxyphenyl)thiazol-2-yl)benzyl)azetidine-3-carboxylic acid]: the EC50 was ≥ 2000 nM at Human S1P4 receptor [1]; ≤ 10 nM at Human S1P1 receptor [2]; ≥ 2000 nM at Human S1P5 receptor; ≤ 1 nM and 0.41 nM at Human S1P1 receptor [3]. In addition, in the data set on heart rate, the “suppression of the heart rate” value is “not recognized”. Further, at Human S1P3 receptor, the Emax at 1 µM fell in the range of 20 to 50%. Moreover, the activation at 1 µM at Human S1P4 receptor [4] is < 20%.
